Measured values taken from PubChem BioAssay AID1204 (EPA DSSTox, 2008).
Results filed as inconclusive are left out. Activity calls are given as the source filed them.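 Rule for the calls: active = relative estrogen receptor binding affinity above 1E-5, where estradiol scores 100; inconclusive = weak binder, under half inhibition at top dose, or affinity below 1E-5; inactive = no binding seen, affinity zero.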
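Throughout, for relative binding affinity: ratio of estradiol IC50 over compound IC50 times 100 so estradiol equals 100.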

These compounds were tested on estrogen receptor (rat uterine cytosol) (assay: DSSTox (NCTRER) National Center for Toxicological Research Estrogen Receptor Binding Database). Details: rat uterine cytosol ER competitive binding, RBA; ChemClass_ERB: Biphenyls PCBs.
Text: Researchers within FDA's National Center for Toxicological Research (NCTR) generated a database of experimental estrogen receptor binding results for the express purpose of developing improved QSAR models to predict ER binding affinities.The NCTR ER database is a structurally diverse set of natural, synthetic, and environmental estrogens covering most known estrogenic classes and spanning a wide range of biological activity. It represents the largest published ER binding database of same-assay results generated in a single laboratory. […] Information on the percent purity and purchasing source for all chemicals are not included in the DSSTox SDF, but can be obtained from the original NCTR ER Source database and Main Citations listed below. The main citation (Fang et al., 2001) surveys the NCTR ER database from a chemical class based, structure-activity relationship (SAR) perspective. Qualitative SAR characteristics of the NCTR ER database are discussed and a set of general hierarchical rules for identifying potential estrogens are presented. The DSSTox NCTRER SDF augments the original NCTR ER database with chemical class and SAR information abstracted from Fang et al. (2001). The DSSTox SDF file supplements the measured ER relative binding affinity for each chemical (ER_RBA) with chemical class assignment to one of 6 major estrogenic classes further divided into 20 subclasses (ChemClass_ERB), along with a qualitative activity measure, ActivityCategory_ER_RBA. A brief narrative SAR rationale pertaining to ER RBA patterns observed by Fang et al. (2001) for each of the 20 subclasses within the database are provided in the field, ActivityCategory_Rationale_ChemClass_ERB. The original NCTR ER database, from which the expanded DSSTox NCTRER was formed, is contained within a larger Endocrine Disruptor Knowledge Base (EDKB) accessible from the FDA Source Website. That website provides online access to a relational database comprised of in vitro and in vivo experimental data for about 2000 natural and synthetic compounds, much of this extracted from the literature and representing testing in many laboratories. Data are included for biological assays that measure estrogenic and androgenic activity. Estrogenic endpoints include in vitro assays for estrogen receptor competitive binding affinity, cell proliferation, and reporter-gene assays, and in vivo assays for uterotrophic activity (i.e., uterine weight gain and vaginal cornification). The database also contains a bibliography of over 1200 citations, many of which include abstracts.
Estrogen receptor relative binding affinity is determined using a competitive receptor binding assay as described in NCTRER Ref (Blair et al., 2000). Briefly, a chemical competes with radiolabeled E2 (i.e., estradiol) for binding to the ER in rat uterine cytosol and the concentration of chemical that causes 50% inhibition of E2 binding (i.e., IC50) is measured. The ER_RBA is calculated by dividing the IC50 of E2 (9X10-10M) by the IC50 of the competitor and multiplying by 100 (E2 RBA = 100). The validated assay tested 1nM E2 with concentrations of competitor ranging from 1nM to 1mM. The larger the ER_RBA values, the greater the binding affinity; ER_RBA > 100 means compound has greater binding affinity than natural ER ligand, E2. […] Activity Score is mapping of LOG_ER_RBA values (ER-RBA>1E-5), spanning activity range [MIN, MAX] onto Integer 20-100 Activity range, where 100 is highest potency and 20 is lowest active potency. If Activity Outcome is "active": Activity Score = 80 * INTEGER[(LOG_ER_RBA - MIN)/(MAX […] MIN)]. If Activity Outcome is "inconclusive" (i.e., slight binder): Activity Score = 5.
`Clc1ccc(-c2ccc(Cl)cc2)cc1` was tested, and the outcome was “inactive”.

Same assay, conditions: rat uterine cytosol ER competitive binding, RBA; ChemClass_ERB: Biphenyls PCBs; stronger effect = higher value
`Oc1ccc(-c2cc(Cl)ccc2Cl)cc1` showed a relative binding affinity of 0.0363%.
With `Oc1ccc(-c2ccccc2)c(Cl)c1` the relative binding affinity was 0.00169%.
`Oc1ccc(-c2ccc(Cl)cc2)cc1` was tested, and the relative binding affinity was 0.0066%.
For `Oc1c(Cl)cc(-c2cc(Cl)c(O)c(Cl)c2)cc1Cl`, the relative binding affinity was 0.00056%.
With `Oc1ccc(-c2cc(Cl)c(Cl)c(Cl)c2Cl)cc1` the relative binding affinity was 0.23%.

Same assay, conditions: rat uterine cytosol ER competitive binding, RBA; ChemClass_ERB: DES Derivatives; stronger effect = higher value
`CC/C(=C(/CC)c1ccc(O)cc1)c1ccc(O)cc1` gave a relative binding affinity of 398%.

Same assay, conditions: rat uterine cytosol ER competitive binding, RBA; ChemClass_ERB: DES Hexestrol derivatives; stronger effect = higher value
`CC[C@H](c1ccc(O)cc1)[C@@H](CC)c1ccc(O)cc1` was tested, and the relative binding affinity was 301%.
With `CCC(c1ccc(O)cc1)C(CC)c1ccc(OC)cc1` (stereo not given) the relative binding affinity was 9.33%.
For `Oc1ccc(CCc2ccccc2)cc1`, the relative binding affinity was 0.00204%.

Same assay, conditions: rat uterine cytosol ER competitive binding, RBA; ChemClass_ERB: DES Triphenylethylenes; stronger effect = higher value
`CC/C(=C(\c1ccccc1)c1ccc(OCCN(C)C)cc1)c1ccc(O)cc1` gave a relative binding affinity of 174%.
Compound `CC/C(=C(/c1ccc(OCCN(C)C)cc1)c1cccc(O)c1)c1ccccc1` has a relative binding affinity of 15.1%.

Same assay, conditions: rat uterine cytosol ER competitive binding, RBA; ChemClass_ERB: Diphenylmethanes Benzophenones
`COc1ccc(C(=O)c2ccccc2O)c(O)c1` was tested, and the outcome was “inactive”.

Same assay, conditions: rat uterine cytosol ER competitive binding, RBA; ChemClass_ERB: Diphenylmethanes Benzophenones; stronger effect = higher value
`O=C(c1ccccc1)c1ccc(O)cc1O` showed a relative binding affinity of 0.00245%.
Compound `O=S(=O)(c1ccc(O)cc1)c1ccc(O)cc1` has a relative binding affinity of 0.00085%.

Same assay, conditions: rat uterine cytosol ER competitive binding, RBA; ChemClass_ERB: Diphenylmethanes DDTs
In the case of `Clc1ccc(C(c2ccc(Cl)cc2)C(Cl)(Cl)Cl)cc1`, the outcome is reported as “inactive”.
With `Clc1ccc(C(c2ccc(Cl)cc2)C(Cl)Cl)cc1` the outcome was “inactive”.

Same assay, conditions: rat uterine cytosol ER competitive binding, RBA; ChemClass_ERB: Diphenylmethanes DDTs; stronger effect = higher value
`COc1ccc(C(=C(Cl)Cl)c2ccc(O)cc2)cc1` showed a relative binding affinity of 0.234%.

Same assay, conditions: rat uterine cytosol ER competitive binding, RBA; ChemClass_ERB: Diphenylmethanes Diphenolalkanes; stronger effect = higher value
Compound `CCC(C)(c1ccc(O)cc1)c1ccc(O)cc1` has a relative binding affinity of 0.0851%.

Same assay, conditions: rat uterine cytosol ER competitive binding, RBA; ChemClass_ERB: Misc
With `Nc1ccc(/C=C/c2ccc(N)cc2)cc1` the outcome was “inactive”.
`O=S1OCC2C(CO1)C1(Cl)C(Cl)=C(Cl)C2(Cl)C1(Cl)Cl` (stereo not given) was tested, and the outcome was “inactive”.
In the case of `CCCCCCC=O`, the outcome is reported as “inactive”.
For `CCCCc1ccccc1`, the outcome was “inactive”.
For `O=C(O)COc1cc(Cl)c(Cl)cc1Cl`, the outcome was “inactive”.
With `OCCCCCCCCO` the outcome was “inactive”.
In the case of `ClC1=C(Cl)C2(Cl)C3C(Cl)C=CC3C1(Cl)C2(Cl)Cl` (stereo not given), the outcome is reported as “inactive”.
`ClC1C(Cl)C(Cl)C(Cl)C(Cl)C1Cl` (stereo not given) was tested, and the outcome was “inactive”.
With `CNC(=O)Oc1cccc2ccccc12` the outcome was “inactive”.
In the case of `CC12CCC(CC1)C(C)(C)O2`, the outcome is reported as “inactive”.
In the case of `c1ccc2c(c1)ccc1c3ccccc3ccc21`, the outcome is reported as “inactive”.
With `C[Si](C)(Cc1ccccc1)O[Si](C)(C)Cc1ccccc1` the outcome was “inactive”.
With `CCCCOC(=O)c1ccccc1C(=O)OCCCC` the outcome was “inactive”.
For `ClC1=C(Cl)[C@]2(Cl)[C@@H]3[C@H]4C=CC(C4)[C@@H]3C1(Cl)C2(Cl)Cl`, the outcome was “inactive”.
In the case of `ClC1=C(Cl)[C@]2(Cl)[C@@H]3[C@@H]4C[C@@H]([C@H]5O[C@@H]45)[C@@H]3[C@@]1(Cl)C2(Cl)Cl`, the outcome is reported as “inactive”.
For `CCCCC(CC)COC(=O)CCCCC(=O)OCC(CC)CCCC` (stereo not given), the outcome was “inactive”.
With `CCOC(=O)/C=C/c1ccccc1` the outcome was “inactive”.
`COc1ccc2[nH]cc(CCNC(C)=O)c2c1` was tested, and the outcome was “inactive”.
In the case of `c1ccc2c(c1)OCCOCCOc1ccccc1OCCOCCO2`, the outcome is reported as “inactive”.
For `OCc1ccccc1`, the outcome was “inactive”.

Same assay, conditions: rat uterine cytosol ER competitive binding, RBA; ChemClass_ERB: Misc; stronger effect = higher value
`C[Si](C)(O[Si](C)(C)c1ccccc1)c1ccccc1` was tested, and the relative binding affinity was 0.00069%.
`CC[C@@H]1c2ccc3cc(OC)ccc3c2CC[C@]1(C)C(=O)O` was tested, and the relative binding affinity was 0.00181%.

Same assay, conditions: rat uterine cytosol ER competitive binding, RBA; ChemClass_ERB: Phenols Alkyloxy
In the case of `C/C=C/c1ccc(O)c(OC)c1`, the outcome is reported as “inactive”.
With `C=CCc1ccc(O)c(OC)c1` the outcome was “inactive”.
With `COc1cc(C=O)ccc1O` the outcome was “inactive”.

Same assay, conditions: rat uterine cytosol ER competitive binding, RBA; ChemClass_ERB: Phenols Alkyloxy; stronger effect = higher value
With `CCCCCCCOc1ccc(O)cc1` the relative binding affinity was 0.00131%.

Same assay, conditions: rat uterine cytosol ER competitive binding, RBA; ChemClass_ERB: Phenols Parabens; stronger effect = higher value
`O=C(OCc1ccccc1)c1ccc(O)cc1` was tested, and the relative binding affinity was 0.00288%.
With `CCCOC(=O)c1ccc(O)cc1` the relative binding affinity was 0.0006%.
For `CCOC(=O)c1ccc(O)cc1`, the relative binding affinity was 0.0006%.
`COC(=O)c1ccc(O)cc1` gave a relative binding affinity of 0.00036%.
Compound `CCCCCCCOC(=O)c1ccc(O)cc1` has a relative binding affinity of 0.00812%.

Same assay, conditions: rat uterine cytosol ER competitive binding, RBA; ChemClass_ERB: Phytoestrogens Chalconoids; stronger effect = higher value
`O=C(/C=C/c1ccccc1)c1ccc(O)cc1` was tested, and the relative binding affinity was 0.0037%.
For `O=C(/C=C/c1ccc(O)cc1)c1ccc(O)cc1O`, the relative binding affinity was 0.055%.
In the case of `O=C(/C=C/c1ccccc1)c1ccccc1`, the relative binding affinity is reported as 0.00151%.

Same assay, conditions: rat uterine cytosol ER competitive binding, RBA; ChemClass_ERB: Phytoestrogens Flavanones
For `COc1ccc([C@@H]2CC(=O)c3c(O)cc(O)cc3O2)cc1O`, the outcome was “inactive”.
In the case of `Oc1cc(O)c2c(c1)O[C@H](c1ccc(O)c(O)c1)[C@@H](O)C2`, the outcome is reported as “inactive”.

Same assay, conditions: rat uterine cytosol ER competitive binding, RBA; ChemClass_ERB: Phytoestrogens Flavanones; stronger effect = higher value
Work on `O=C1CC(c2ccccc2)Oc2ccc(O)cc21` (stereo not given) yielded a relative binding affinity of 0.00089%.
In the case of `O=C1CC(c2cccc(O)c2)Oc2ccccc21` (stereo not given), the relative binding affinity is reported as 0.00165%.

Same assay, conditions: rat uterine cytosol ER competitive binding, RBA; ChemClass_ERB: Phytoestrogens Flavones
For `O=c1cc(-c2ccccc2)oc2ccccc12`, the outcome was “inactive”.
With `COc1ccccc1-c1cc(=O)c2cc(O)ccc2o1` the outcome was “inactive”.

Same assay, conditions: rat uterine cytosol ER competitive binding, RBA; ChemClass_ERB: Phytoestrogens Flavones; stronger effect = higher value
`O=c1c(O)c(-c2ccc(O)cc2O)oc2cc(O)cc(O)c12` gave a relative binding affinity of 0.00081%.

Same assay, conditions: rat uterine cytosol ER competitive binding, RBA; ChemClass_ERB: Phytoestrogens Isoflavones; stronger effect = higher value
`O=c1c(-c2ccc(O)c(O)c2)coc2cc(O)ccc12` gave a relative binding affinity of 0.00446%.
`COc1cc(O)c2c(=O)c(-c3ccc(O)cc3)coc2c1` showed a relative binding affinity of 0.00181%.
Work on `Oc1ccc([C@H]2COc3cc(O)ccc3C2)cc1` yielded a relative binding affinity of 0.151%.
`O=c1c(-c2ccc(O)cc2)coc2cc(O)ccc12` was tested, and the relative binding affinity was 0.022%.
`COc1ccc(-c2coc3cc(O)cc(O)c3c2=O)cc1` was tested, and the relative binding affinity was 0.0043%.

Same assay, conditions: rat uterine cytosol ER competitive binding, RBA; ChemClass_ERB: Phytoestrogens Mycoestrogens; stronger effect = higher value
`C[C@@H]1CCC[C@H](O)CCC/C=C/c2cc(O)cc(O)c2C(=O)O1` showed a relative binding affinity of 0.204%.

Same assay, conditions: rat uterine cytosol ER competitive binding, RBA; ChemClass_ERB: Steroids With aromatic A ring; stronger effect = higher value
Work on `C[C@]12CC[C@@H]3c4ccccc4CC[C@H]3[C@@H]1CCC2=O` yielded a relative binding affinity of 0.0063%.
Compound `C[C@]12CC[C@@H]3c4ccc(O)cc4CC[C@H]3[C@@H]1CCC2=O` has a relative binding affinity of 7.24%.
`COc1ccc2c(c1)CC[C@@H]1[C@@H]2CC[C@]2(C)[C@@H](O)[C@H](O)C[C@@H]12` gave a relative binding affinity of 0.0224%.
`C[C@@]12CCC[C@H]1[C@@H]1CCc3cc(O)ccc3[C@H]1CC2` showed a relative binding affinity of 13.8%.
`C[C@]12CC[C@@H]3c4ccccc4CC[C@H]3[C@@H]1CC[C@@H]2O` was tested, and the relative binding affinity was 0.501%.
For `C#C[C@]1(O)CC[C@H]2[C@@H]3CCc4cc(O)ccc4[C@H]3[C@@H](OC)C[C@@]21C`, the relative binding affinity was 13.8%.
For `C[C@]12CC[C@@H]3c4ccc(O)cc4C[C@@H](CCCCCCCCCS(=O)CCCC(F)(F)C(F)(F)F)[C@H]3[C@@H]1CC[C@@H]2O` (stereo not given in full), the relative binding affinity was 37.1%.

Same assay, conditions: rat uterine cytosol ER competitive binding, RBA; ChemClass_ERB: Steroids Without aromatic A ring
For `C[C@@H]1C[C@H]2[C@@H]3CCC4=CC(=O)C=C[C@]4(C)[C@@]3(F)[C@@H](O)C[C@]2(C)[C@@]1(O)C(=O)CO`, the outcome was “inactive”.
In the case of `C[C@]12C[C@H](O)[C@H]3[C@@H](CCC4=CC(=O)CC[C@@]43C)[C@@H]1CC[C@@H]2C(=O)CO`, the outcome is reported as “inactive”.
